# Structures can show the parent of a compound that is named as a salt. Where two headings read alike, the source gives them in different places.
# Legend:
# Assay type in all cases: in vivo
# Male mice of ddY strain [1] = assay: Test 1 Anti-nicotine activity (inhibition of nicotine-induced convulsive death); details: 200 mg/kg po, nicotine 2 mg/kg iv after 1 h, observed 1 h; for responders at 200 mg/kg: Mus musculus
# Experimental: Male mice of ddY strain, weighing 28 to 33 g, were used in groups of eight or twelve. The test compounds were dissolved in distilled water and administered orally in a dose of 200 mg/kg. After an hour, nicotine was intravenously administered in a dose of 2 mg/kg.
# Male mice of ddY strain [2] = assay: Test 2 Anti-tremorine activity (inhibition of tremorine-induced tremor); details: for responders at 50 mg/kg: Mus musculus, po, read-out: Inhibition of tremor (%)
# Experimental: Male mice of ddY strain, weighing 28 to 32 g, were used in groups of eight or ten. The test compounds were dissolved in distilled water and administered orally in a dose of 50 mg/kg. After 30 minutes, tremorine dihydrochloride was subcutaneously administered in a dose of 20 mg/kg. Then, the occurrence of tremor was observed after the lapse of 30 and 60 minutes.
# Male mice of ddY strain [3] = assay: Test 3 Muscle relaxant activity (traction test, method of Courvoisier et al.); details: 15 minutes after administration, groups of ten
# Experimental: Male mice of ddY strain, weighing 30 to 37 g, were used in groups of ten. The test compounds were dissolved in physiological saline and administered intraperitoneally in a dose of 50 or 75 mg/kg. […] This method involves a traction test in which the animal is hung by its forelimbs on a horizontal metal rod (2 mm in diameter) placed 20 cm above the floor and examined as to whether it can put its hindlimb on the rod or not.
# Specifically, 15 minutes after administration of a test compound, the mouse was hung on the rod by its forelimbs. […] It had been confirmed in preliminary tests that, under normal conditions, all the mice could put their hindlimb on the rod within 5 seconds.
# [4] = Test 5 Acute toxicity (LD50, method of Behrens and Kärbar); details: mouse, in vivo, po, mice, observed for 7 days
# Experimental: Male mice of ddY strain, weighing 25 to 30 g, were used in groups of five. The test compounds were dissolved in distilled water and administered orally in various doses. […] Then, the LDso was calculated according to the method of Behrens and Kärbar.
# [5] = Table-3d, 50 mg/kg po, After 30 min., 10 animals used
# [6] = Table-3d, 50 mg/kg po, After 60 min., 10 animals used
# [7] = po, 1 h, Table-2a, 8 animals used
# [8] = po, 1 h, Table-2c, 12 animals used
# [9] = 0.5 h, Table-3a, 50 mg/kg po, After 30 min. from tremorine 20 mg/kg sc, 8 animals used
# [10] = 0.5 h, Table-3b, 50 mg/kg po, After 30 min., 10 animals used
# [11] = 0.5 h, Table-3d, 50 mg/kg po, After 30 min., 10 animals used
# [12] = 1 h, Table-3a, 50 mg/kg po, After 60 min. from tremorine 20 mg/kg sc, 8 animals used
# [13] = 1 h, Table-3b, 50 mg/kg po, After 60 min., 10 animals used
# [14] = 1 h, Table-3d, 50 mg/kg po, After 60 min., 10 animals used
# [15] = Table-3b, 50 mg/kg po, After 30 min., 10 animals used
# [16] = Table-3b, 50 mg/kg po, After 60 min., 10 animals used
# [17] = Table-3a, 50 mg/kg po, After 30 min. from tremorine 20 mg/kg sc, 8 animals used
# [18] = Table-3a, 50 mg/kg po, After 60 min. from tremorine 20 mg/kg sc, 8 animals used
compound,measurement,setting,value
"1-(2,3-Dihydro-5-benzofuranyl)-2-ethyl-3-piperidino-1-propanone hydrochloride [Example 89]",Inhibition of death (%),"Male mice of ddY strain [1]; Table-2c, 12 animals used",66.7%
same,Number of surviving animals,"Male mice of ddY strain [1]; Table-2c, 12 animals used",8
same,Inhibition of tremor (%),Male mice of ddY strain [2]; [5],100%
same,Number of animals exhibiting no tremor,Male mice of ddY strain [2]; [5],10
same,Inhibition of tremor (%),Male mice of ddY strain [2]; [6],100%
same,Number of animals exhibiting no tremor,Male mice of ddY strain [2]; [6],10
same,Muscle relaxation rate (%),"Male mice of ddY strain [3]; Table-4d, 75 mg/kg ip",50%
same,Number of animals exhibiting muscle relaxation,"Male mice of ddY strain [3]; Table-4d, 75 mg/kg ip",5
"CCc1ccc(C(=O)C(C)CN2CCCCC2)cc1 (centres unmarked) [Eperisone HCl, Eperisone, reference compound]",responders at 200 mg/kg,Male mice of ddY strain [1]; [7],50%
same,responders at 200 mg/kg,"Male mice of ddY strain [1]; po, 1 h, Table-2b, 12 animals used",50%
same,responders at 200 mg/kg,Male mice of ddY strain [1]; [8],50%
same,responders at 50 mg/kg,Male mice of ddY strain [2]; [9],87.5%
same,responders at 50 mg/kg,Male mice of ddY strain [2]; [10],80%
same,responders at 50 mg/kg,Male mice of ddY strain [2]; [11],80%
same,responders at 50 mg/kg,Male mice of ddY strain [2]; [12],0%
same,responders at 50 mg/kg,Male mice of ddY strain [2]; [13],10%
same,responders at 50 mg/kg,Male mice of ddY strain [2]; [14],20%
same,Number of animals exhibiting muscle relaxation,"Male mice of ddY strain [3]; Table-4a, 50 mg/kg ip",2
same,Number of animals exhibiting muscle relaxation,"Male mice of ddY strain [3]; Table-4d, 75 mg/kg ip",2
same,LD50 at 168 h,[4]; Table-5a,595 mg/kg
same,LD50 at 168 h,[4]; Table-5b,475 mg/kg
same,LD50 at 168 h,[4]; Table-5c,565 mg/kg
"CC(C)C(CN1CCCCC1)C(=O)c1ccc(C2CC2)cc1.Cl (centres unmarked) [Example 5, 1-(4-Cyclopropylphenyl)-2-isopropyl-3-piperidino-1-propanone hydrochloride]",responders at 50 mg/kg,Male mice of ddY strain [2]; [10],100%
same,responders at 50 mg/kg,Male mice of ddY strain [2]; [13],100%
same,Number of animals exhibiting no tremor,Male mice of ddY strain [2]; [15],10
same,Number of animals exhibiting no tremor,Male mice of ddY strain [2]; [16],10
"CC(CN1CCCC1)C(=O)c1ccc(C2CC2)cc1.Cl (centres unmarked) [Example 8, 1-(4-Cyclopropylphenyl)-2-methyl-3-(1-pyrrolidinyl)-1-propanone hydrochloride]",responders at 200 mg/kg,Male mice of ddY strain [1]; [7],62.5%
same,Number of surviving animals,"Male mice of ddY strain [1]; Table-2a, 8 animals used",5
same,responders at 50 mg/kg,Male mice of ddY strain [2]; [9],100%
same,responders at 50 mg/kg,Male mice of ddY strain [2]; [12],87.5%
same,Number of animals exhibiting muscle relaxation,"Male mice of ddY strain [3]; Table-4a, 50 mg/kg ip",7
same,LD50 at 168 h,[4]; Table-5a,505 mg/kg
"CCC(CN1CCCC1)C(=O)c1ccc(C2CC2)cc1.Cl (centres unmarked) [Example 10, 1-(4-Cyclopropylphenyl)-2-ethyl-3-(1-pyrrolidinyl)-1-propanone hydrochloride]",responders at 200 mg/kg,Male mice of ddY strain [1]; [7],0%
same,Number of surviving animals,"Male mice of ddY strain [1]; Table-2a, 8 animals used",0
same,responders at 50 mg/kg,Male mice of ddY strain [2]; [9],100%
same,responders at 50 mg/kg,Male mice of ddY strain [2]; [12],100%
same,Number of animals exhibiting no tremor,Male mice of ddY strain [2]; [17],8
same,Number of animals exhibiting no tremor,Male mice of ddY strain [2]; [18],8
"CCC(CN1CCCCC1)C(=O)c1ccc(C2CC2)cc1.Cl (centres unmarked) [Example 11, 1-(4-Cyclopropylphenyl)-2-ethyl-3-piperidino-1-propanone hydrochloride]",responders at 200 mg/kg,Male mice of ddY strain [1]; [7],37.5%
same,Number of surviving animals,"Male mice of ddY strain [1]; Table-2a, 8 animals used",3
same,responders at 50 mg/kg,Male mice of ddY strain [2]; [9],100%
same,responders at 50 mg/kg,Male mice of ddY strain [2]; [12],100%
same,Number of animals exhibiting no tremor,Male mice of ddY strain [2]; [17],8
same,Number of animals exhibiting no tremor,Male mice of ddY strain [2]; [18],8
"Cl.O=C(c1ccc(C2CC2)cc1)C(CN1CCCCC1)C1CCCC1 (centres unmarked) [Example 37, 2-Cyclopentyl-1-(4-cyclopropylphenyl)-3-piperidino-1-propanone hydrochloride]",responders at 50 mg/kg,Male mice of ddY strain [2]; [10],80%
same,responders at 50 mg/kg,Male mice of ddY strain [2]; [13],80%
same,Number of animals exhibiting no tremor,Male mice of ddY strain [2]; [15],8
same,Number of animals exhibiting no tremor,Male mice of ddY strain [2]; [16],8
"CC(CN1CCCCC1)C(=O)c1ccc(C2CCCC2)cc1.Cl (centres unmarked) [Example 41, 1-(4-Cyclopentylphenyl)-2-methyl-3-piperidino-1-propanone hydrochloride]",responders at 200 mg/kg,Male mice of ddY strain [1]; [7],37.5%
same,Number of surviving animals,"Male mice of ddY strain [1]; Table-2a, 8 animals used",3
same,responders at 50 mg/kg,Male mice of ddY strain [2]; [9],75%
same,responders at 50 mg/kg,Male mice of ddY strain [2]; [12],12.5%
"CC(CN1CCCCC1)C(=O)c1ccc(C2CCCCC2)cc1.Cl (centres unmarked) [Example 48, 1-(4-Cyclohexylphenyl)-2-methyl-3-piperidino-1-propanone hydrochloride]",responders at 200 mg/kg,Male mice of ddY strain [1]; [7],62.5%
same,Number of surviving animals,"Male mice of ddY strain [1]; Table-2a, 8 animals used",5
same,responders at 50 mg/kg,Male mice of ddY strain [2]; [9],100%
same,responders at 50 mg/kg,Male mice of ddY strain [2]; [12],37.5%
"CCC(CN1CCCC1)C(=O)c1ccc2c(c1)OCO2 (centres unmarked) [Example 56, 2-Ethyl-1-(3,4-methylenedioxyphenyl)-3-(1-pyrrolidi-nyl)-1-propanone hydrochloride]",responders at 200 mg/kg,"Male mice of ddY strain [1]; Table-2b, 12 animals used",41.7%
same,Number of surviving animals,"Male mice of ddY strain [1]; Table-2b, 12 animals used",5
"CC(CN1CCCC1)C(=O)c1ccc2c(c1)OCO2 (centres unmarked) [Example 60, 2-Methyl-1-(3,4-methylenedioxyphenyl)-3-(1-pyrrolidi-nyl)-1-propanone hydrochloride]",responders at 200 mg/kg,"Male mice of ddY strain [1]; Table-2b, 12 animals used",58.3%
same,Number of surviving animals,"Male mice of ddY strain [1]; Table-2b, 12 animals used",7
"CC(CN1CCCCCC1)C(=O)c1ccc2c(c1)OCO2.Cl (centres unmarked) [Example 61, 2-Methyl-1-(3,4-methylenedioxyphenyl)-3-(hexahydro-1H-azepin-1-yl)-1-propanone hydrochloride]",responders at 200 mg/kg,"Male mice of ddY strain [1]; Table-2b, 12 animals used",58.3%
same,Number of surviving animals,"Male mice of ddY strain [1]; Table-2b, 12 animals used",7
"CCC(CN1CCCC1)C(=O)c1ccc2c(c1)CCO2.Cl (centres unmarked) [Example 95, 1-(2,3-Dihydro-5-benzofuranyl)-2-ethyl-3-(1-pyrrolidinyl)-1-propanone hydrochloride]",responders at 200 mg/kg,"Male mice of ddY strain [1]; Table-2c, 12 animals used",16.7%
same,Number of surviving animals,"Male mice of ddY strain [1]; Table-2c, 12 animals used",2
same,responders at 50 mg/kg,Male mice of ddY strain [2]; 0.5 h,100%
same,responders at 50 mg/kg,Male mice of ddY strain [2]; 1 h,100%
same,Number of animals exhibiting no tremor,Male mice of ddY strain [2]; [5],10
same,Number of animals exhibiting no tremor,Male mice of ddY strain [2]; [6],10
"CCC(CN1CCCCCC1)C(=O)c1ccc2c(c1)CCO2.Cl (centres unmarked) [Example 96, 1-(2,3-Dihydro-5-benzofuranyl)-2-ethyl-3-(hexa-hydro-1H-azepin-1-yl)-1-propanone hydrochloride]",responders at 200 mg/kg,Male mice of ddY strain [1]; [8],41.7%
same,Number of surviving animals,"Male mice of ddY strain [1]; Table-2c, 12 animals used",5
same,responders at 50 mg/kg,Male mice of ddY strain [2]; [11],100%
same,responders at 50 mg/kg,Male mice of ddY strain [2]; [14],100%
same,Number of animals exhibiting no tremor,Male mice of ddY strain [2]; [5],10
same,Number of animals exhibiting no tremor,Male mice of ddY strain [2]; [6],10
"CCCC(CN1CCCC1)C(=O)c1ccc2c(c1)CCO2.Cl (centres unmarked) [Example 98, 1-(2,3-Dihydro-5-benzofuranyl)-2-n-propyl-3-(1-pyrrolidinyl)-1-propanone hydrochloride]",responders at 200 mg/kg,"Male mice of ddY strain [1]; Table-2c, 12 animals used",0%
same,Number of surviving animals,"Male mice of ddY strain [1]; Table-2c, 12 animals used",0
same,responders at 50 mg/kg,Male mice of ddY strain [2]; 0.5 h,100%
same,responders at 50 mg/kg,Male mice of ddY strain [2]; 1 h,90%
"CCCC(CN1CCCCC1)C(=O)c1ccc2c(c1)CCO2.Cl (centres unmarked) [Example 99, 1-(2,3-Dihydro-5-benzofuranyl)-2-n-propyl-3-piperidino-1-propanone hydrochloride]",responders at 200 mg/kg,Male mice of ddY strain [1]; [8],25%
same,Number of surviving animals,"Male mice of ddY strain [1]; Table-2c, 12 animals used",3
same,responders at 50 mg/kg,Male mice of ddY strain [2]; [11],100%
same,responders at 50 mg/kg,Male mice of ddY strain [2]; [14],90%
same,Number of animals exhibiting muscle relaxation,"Male mice of ddY strain [3]; Table-4d, 75 mg/kg ip",2
"CCCC(CN1CCCCCC1)C(=O)c1ccc2c(c1)CCO2.Cl (centres unmarked) [Example 100, 1-(2,3-Dihydro-5-benzofuranyl)-2-n-propyl-3-(hexahydro-1H-azepin-1-yl)-1-propanone hydrochloride]",responders at 200 mg/kg,"Male mice of ddY strain [1]; Table-2c, 12 animals used",0%
same,Number of surviving animals,"Male mice of ddY strain [1]; Table-2c, 12 animals used",0
same,responders at 50 mg/kg,Male mice of ddY strain [2]; 0.5 h,100%
same,responders at 50 mg/kg,Male mice of ddY strain [2]; 1 h,100%
same,Number of animals exhibiting no tremor,Male mice of ddY strain [2]; [5],10
same,Number of animals exhibiting no tremor,Male mice of ddY strain [2]; [6],10

# Reference: patent EP0163537A1, “1-Propanone derivatives and pharmaceutical compositions containing same” (priority 1984, dated 1985)
